{"source": "patent US20110020843A1", "about": "“LABEL-FREE METHODS RELATED TO PHOSPHODIESTERASES” (priority 2009, published 2011)", "key": {"[1]": {"system": "quiescent A431 cells (endogenous PDE4 isoforms)", "assay": "Label-free Epic RWG biosensor DMR assay of PDE inhibitors in synchronized quiescent A431 cells", "assay_type": "cell-based, human", "conditions": "for DMR signal induced by PDE inhibitor: each at 12.5 micromolar, 22k cells per well, synchronized in HBSS under low CO2 for 2 hrs, vs vehicle; for DMR signal upon stimulation: synchronized in HBSS buffer for a shorter time (<90 min), data not shown", "experimental": "Cells were typically grown using ˜1 to 2×10^4 cells per well at passage 3 to 15 suspended in 50 μl of the corresponding culture medium in the biosensor microplate, and were cultured at 37° C. under air/5% CO2 for ˜1 day. Except for A431 which was subject to ˜20 hr starvation through continuously culture in the serum-free DMEM, the other cell types were directly assayed without starvation.\nEpic® wavelength interrogation system (Corning Inc., Corning, N.Y.) was used for whole cell sensing. This system consists of a temperature-control unit, an optical detection unit, and an on-board liquid handling unit with robotics. The detection unit is centered on integrated fiber optics, and enables kinetic measures of cellular responses with a time interval of ˜15 sec. The compound solutions were introduced by using the on-board liquid handling unit (i.e., pippetting).\nThe RWG biosensor is capable of detecting minute changes in local index of refraction near the sensor surface. Since the local index of refraction within a cell is a function of density and its distribution of biomass (e.g., proteins, molecular complexes), the biosensor exploits its evanescent wave to non-invasively detect ligand-induced dynamic mass redistribution in native cells. The evanescent wave extends into the cells and exponentially decays over distance, leading to a characteristic sensing volume of ˜150 nm, implying that any optical response mediated through the receptor activation only represents an average over the portion of the cell that the evanescent wave is sampling. The aggregation of many cellular events downstream the receptor activation determines the kinetics and amplitudes of a ligand-induced DMR.\nAll studies were carried out at a controlled temperature (28° C.). At least two independent sets of experiments, each with at least three replicates, were performed.\nWe further examined the DMR signal, if any, of the quiescent A431 cells upon treatment with PDE inhibitors. […] The quiescent A431 cells obtained under the same culture condition were used. Here the initial seeding numbers of cells were relatively low (˜20K cells per well in a 384 well Epic biosensor microplate tissue culture treated). […] After washing with the serum free medium, the cells were continuously cultured in the serum free medium for another 24 hrs to reach a quiescent state. Here the quiescent state was largely achieved through serum withdrawl. […] The cell membrane bound carbonic anahydrase is a known sensor for CO2 level.\nIn FIG. 4 the quiescent cells were achieved primarily through serum withdrawl. We were interested in the quiescent cells achieved through both contact inhibition and serum withdrawl. To do so, much higher initial seeding numbers of cells (>=25k cells per well for the 384 well Epic biosensor microplate) were used. […] Here both quiescent cells were subject to the same synchronization condition (2 hr incubation in the HBSS assay solution in a low CO2 environment).\nHere the quiescent A431 cells were used using 22k cells per well in 384 well Epic biosensor microplates, followed by one day (˜24 hrs) culture in serum medium and 1 day (˜24 hrs) serum free medium, and sequential synchronization in the HBSS buffer solution under a relatively low CO2 environment for 2 hrs. […] For comparison, the DMR signal of cells stimulated with the buffer only (“Vehicle”) were included."}, "[2]": {"system": "intracellular cAMP level of A431 cells", "assay": "Chemiluminescence quantification of cyclic AMP in whole cell lysate", "assay_type": "cell-based, human", "protocol": "A431 cells were seeded in 96 well TCT microplate at 80000 cells/well, cultured for 20 hrs and starved for an extra 20 hrs. Cells were washed two time with HBSS and incubated with 100 μl of HBSS, Leibovitz's L-15 medium (Gibco) or 1 μM of Acetozamine (Sigma) in HBSS for 2 hrs in the Epic instrument. […] The medium or buffer was removed and cells were lysed in 100 μm al of lysis buffer (from cAMP HTS immunoassay kit, Millipore) containing 1 mM IBMX. 50 μl of cell extracts as well as cAMP standard were then analyzed using the same procedure described by the vendor.\nA431 Cells were cultured in a serum rich medium on Corning tissue culture treated 96 well microplate until it reached a high confluency (˜95%). After washing, the cells were continuously cultured in a serum free medium for overnight. At this point, the cells were at ˜100% confluency. After washing with corresponding solution, the cells are incubated at the same low CO2 environment (˜2% CO2) for 2 hr. The cells were then lysed with a cell lysis buffer containing 100 micromolar IBMX to block the PDE activity, followed by cAMP measurements, using the protocol as recommended by the supplier."}, "[3]": {"target": "endogenous Gs-coupled β2-adrenergic receptor (Homo sapiens, UniProt P07550)", "sequence (P07550 whole entry)": "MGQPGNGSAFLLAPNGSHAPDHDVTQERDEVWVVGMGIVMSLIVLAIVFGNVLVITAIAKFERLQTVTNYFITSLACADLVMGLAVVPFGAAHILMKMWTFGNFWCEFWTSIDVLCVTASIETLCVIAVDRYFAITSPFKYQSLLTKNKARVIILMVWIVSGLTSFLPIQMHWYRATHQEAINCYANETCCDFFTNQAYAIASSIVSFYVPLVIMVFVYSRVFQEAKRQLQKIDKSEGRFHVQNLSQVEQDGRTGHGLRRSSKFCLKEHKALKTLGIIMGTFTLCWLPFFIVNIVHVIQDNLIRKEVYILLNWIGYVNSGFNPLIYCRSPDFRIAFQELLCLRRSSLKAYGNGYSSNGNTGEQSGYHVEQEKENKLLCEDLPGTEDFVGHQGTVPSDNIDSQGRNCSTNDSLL", "conditions": "A431 cells; Epic DMR vs whole cell cAMP kit (FIG. 3)", "experimental": "For biosensor cellular assays, compound solutions were made by diluting the stored concentrated solutions with the HBSS (1× Hanks balanced salt solution, plus 20 mM Hepes, pH 7.1), and transferred into a 384 well polypropylene compound storage plate to prepare a compound source plate. Two compound source plates were made separately when a two-step assay was performed. In parallel, the cells were washed twice with the HBSS and maintained in 30 μl of the HBSS to prepare a cell assay plate. Both the cell assay plate and the compound source plate(s) were then incubated in the hotel of the reader system. After incubation the baseline wavelengths of all biosensors in the cell assay microplate were recorded and normalized to zero. Afterwards, a 2 to 10 min continuous recording was carried out to establish a baseline, and to ensure that the cells reached a steady state. Cellular responses were then triggered by transferring 10 μl of the compound solutions into the cell assay plate using the on-board liquid handler."}}, "note": "Like-named read-outs stand apart in the source and are kept apart here.", "data": [{"molecule": "Cc1ccc([N+](=O)[O-])cc1S(=O)(=O)N(C)C", "note": "[BRL-50481]", "values": [{"measurement": "DMR signal induced by PDE inhibitor", "setting": "[1]", "result": "did not result in any detectable DMR signals"}]}, {"molecule": "CC(C)Cn1c(=O)n(C)c(=O)c2[nH]cnc21", "note": "[IBMX]", "values": [{"measurement": "impact on intracellular cAMP levels (whole cell lysate)", "setting": "[2]; 10 nanomolar to 100 micromolar, all synchronization conditions, data not shown", "result": "little impact"}, {"measurement": "EC50", "setting": "[1]; quiescent A431 (~20K cells per well, serum withdrawl), the three synchronized conditions wherein IBMX led to a detectable DMR signal, read-out: potency of IBMX-induced DMR signal (EC50)", "result": "~10", "unit": "µM"}, {"measurement": "IBMX-induced DMR signal", "setting": "[1]; quiescent A431 synchronized in CO2 independent medium L-15, highest doses examined (FIG. 4c)", "result": "little DMR signals"}, {"measurement": "IBMX-induced DMR signal", "setting": "[1]; synchronized in 1×HBSS 20 mM Hepes pH 7.1 with or without acetamolamide, low CO2, 2 hr (FIG. 4A, 4B)", "result": "dose-dependent and robust DMR signal"}, {"measurement": "IBMX-induced DMR signal", "setting": "[1]; synchronized in CO2 independent L-15 medium containing acetamolamide at 1 micromolar (FIG. 4D)", "result": "robust DMR signal"}, {"measurement": "DMR signal upon stimulation", "setting": "[1]", "result": "inconsistent DMR signal"}]}, {"molecule": "CCCn1c(=O)c(C)cn2nc(N)nc12", "note": "[ICI63197]", "values": [{"measurement": "DMR signal induced by PDE inhibitor", "setting": "[1]", "result": "Gs-like DMR signal"}]}, {"molecule": "COCc1nc2c([nH]1)c(=O)n(C)c(=O)n2CC(C)C", "note": "[MMPX]", "values": [{"measurement": "DMR signal induced by PDE inhibitor", "setting": "[1]", "result": "did not result in any detectable DMR signals"}]}, {"molecule": "Clc1cccc(Nc2nnc(-c3ccccc3)c3ccccc23)c1", "note": "[MY-5445]", "values": [{"measurement": "DMR signal induced by PDE inhibitor", "setting": "[1]", "result": "did not result in any detectable DMR signals"}]}, {"molecule": "COc1ccc([C@@H]2CNC(=O)C2)cc1OC1CCCC1", "note": "[R-rolipram]", "values": [{"measurement": "EC50", "setting": "[1]; Homo sapiens, A-431, quiescent cells achieved through both contact inhibition and serum withdrawl (>=25k cells per well), 2 hr incubation in HBSS, low CO2, read-out: EC50 of DMR response", "result": 0.25, "unit": "µM"}, {"measurement": "DMR signal induced by PDE inhibitor", "setting": "[1]", "result": "Gs-like DMR signal"}, {"measurement": "DMR signal upon stimulation", "setting": "[1]", "result": "inconsistent DMR signal"}]}, {"molecule": "CCCCOc1cc(CC2CNC(=O)N2)ccc1OC", "note": "(centres unmarked) [Ro-20-1724]", "values": [{"measurement": "DMR signal induced by PDE inhibitor", "setting": "[1]", "result": "Gs-like DMR signal"}]}, {"molecule": "CCc1ccc2c(-c3cccc(Cl)c3)nc(=O)n(CC)c2n1", "note": "[YM-976]", "values": [{"measurement": "DMR signal induced by PDE inhibitor", "setting": "[1]", "result": "Gs-like DMR signal"}]}, {"molecule": "CC(=O)Nc1nnc(S(N)(=O)=O)s1", "note": "[acetazolamide]", "values": [{"measurement": "basal cAMP level", "setting": "[2]; quiescent A431 synchronized 2 hr, low CO2, in L-15 medium containing 1 micromolar acetazolamide", "result": "0.74±0.1", "unit": "pmole/160K cells"}]}, {"molecule": "O=C1CN2Cc3c(ccc(Cl)c3Cl)N=C2N1", "note": "[anagrelide]", "values": [{"measurement": "DMR signal induced by PDE inhibitor", "setting": "[1]", "result": "did not result in any detectable DMR signals"}]}, {"molecule": "CNC[C@H](O)c1ccc(O)c(O)c1", "note": "[epinephrine]", "values": [{"measurement": "potency to activate DMR signal relative to potency to cause whole cell cAMP accumulation", "setting": "[3]", "result": "much higher potency"}]}, {"molecule": "Cc1[nH]c(=O)c(C#N)cc1-c1ccncc1", "note": "[milrinone]", "values": [{"measurement": "DMR signal induced by PDE inhibitor", "setting": "[1]", "result": "did not result in any detectable DMR signals"}]}, {"molecule": "CCCOc1ccccc1-c1nc2nn[nH]c2c(=O)[nH]1", "note": "[zaprinast]", "values": [{"measurement": "DMR signal induced by PDE inhibitor", "setting": "[1]", "result": "did not result in any detectable DMR signals"}]}]}
